Data reported in US20050009132A1, “Culture medium for detecting and/or discriminating enterococcus and method therefor” (priority 2001, published 2005).

System: Gram-positive bacteria
Test: Addition of Crystal Violet to culture medium, growth inhibition of Gram-positive bacteria
Type: cell-based
Settings: concentration as low as

CN(C)c1ccc(C(=C2C=CC(=[N+](C)C)C=C2)c2ccc(N(C)C)cc2)cc1 [Crystal Violet]
Crystal Violet concentration at which inhibition of the growth of a large quantity of Gram-positive bacteria is observed: 0.1 mg/L
